We go through four compounds from paper PMC3352927, “Development and Validation of an Automated High-Throughput System for Zebrafish In Vivo Screenings” (PLoS ONE, 2012).

Data set [1] relates to zebrafish embryos. The experiment in a line: Automated angiogenesis assay (ISV formation), Flk1:copGFP embryos treated at 22-26 hpf, read at 48 hpf. The format is in vivo. To be noted: for Angiog. inhibition: presence or absence of an anti-angiogenic effect, 0.01-100 µM; for Anti-angiogenic phenotype (ISVs / DLAV): treated at 24 hpf, checked at 48 hpf; for Efective concentration (minimum concentration that showed an effect): given when IC50 could not be calculated.
Text: In the angiogenesis assay, the fluorescent images taken were processed using AxioVision 4.6.3 and a macro was developed to quantify an indirect measure of the area of the ISVs. […] However, we usually include a manual counting to offer a more detailed measurement of effect.
In the automatic analysis of angiogenesis, it is first necessary to perform a sequence of automated filtering functions on the image to extract information, define the region of interest (ROI), that in this case is the part of the tail containing the ISVs, and allow the measurement of the embryo length. Recovering a previous image, new filtering functions are applied to the ROI. A gradient image containing the ISVs, the DLAV (Dorsal Longitudinal Anastomotic Vessel), the PCV and the DA is created. Next, fluorescent areas that should not be quantified are discarded. Finally, only the areas comprised between the ISVs, the DLAV and the PCV or the DA are measured (Figure 4). In that way, when the vessels are incomplete or the DLAV is not present, an enclosed area is not present and therefore not measured.
The means obtained from the treated embryos were compared with the control mean. When statistically significant differences were detected a deeper analysis was done manually. In this case the parameters quantified were:
• The total number of ISVs present in the trunk of the embryos (from where the largest bulge of the yolk ends to the end of the tail). • Number of complete ISVs (reached the dorsal part of the embryo and formed the DLAV).
A curve of six concentrations (0.01, 0.1, 1, 10, 30 and 100 µM) was performed for all of them. […] IC50 was calculated when a clear dose-dependent anti-angiogenesis effect was detected. Otherwise, the minimum dose at which the inhibition of angiogenesis was observed is shown (Table 4).
At this time, chorions were removed with protease from Streptomyces griseus (Sigma-Aldrich) (1.5 mg/ml for 6 minutes) and the embryos were sorted and dispensed 1 per well in a 96 well assay plate. Each experimental condition was tested in a row with ten embryos. Embryos were dispensed in an average final volume of 90 µl of E3 media. 90 µl of the test items (DMSO and positive control KRN633 included) previously diluted 100 times were dispensed into each well of the assay plate containing the embryos to get the final volume of 180 µl and the desired final concentration.
The microscope scanned the wells by columns and a bright field image and a fluorescent image (2.5×magnification) were acquired per well. Then, the image analysis was performed and the result file generated.
Statistical analysis and graphical representation of the data were performed using SSPS (Statistical Package for the Social Sciences) software and Prism (Graph Pad Software) for IC50 calculations (non linear regression, sigmoidal dose-response with variable slope). […] In the angiogenesis assay, for comparisons between two groups, two-tailed t-test was used assuming unequal variances. For comparisons between more than two groups one-way analysis of variance followed by Dunnett’s post-test was applied to compare each data point with vehicle control.

Data set [2] in a line: Dilution of compound in E3 medium. The format is physicochemical.
The subject of data set [3] is zebrafish embryos. The experiment in a line: Embryo analysis at 72 hpf (blood circulation and ISVs development). The format is in vivo. To be noted: 72 hpf. Here is the method:
Embryos from the Flk1:copGFP line were treated with the indicated compounds at 22–23 hpf in 500 µl of E3 in p24 well plates (5 embryos per well). After 48 hours of treatment embryos were anesthetized with 10 µl Tricaine (final concentration 0.02%) and analyzed for the presence of blood circulation and ISVs development using a Leica M205 FA stereoscope equipped with a Hamamatsu C10600 camera.

“Also recorded” adds a separate entry of the source.

Turning to `CC(=O)O[C@H]1C(=O)[C@@]2(C)[C@H]([C@H](OC(=O)c3ccccc3)[C@]3(O)C[C@H](OC(=O)[C@H](O)[C@@H](NC(=O)c4ccccc4)c4ccccc4)C(C)=C1C3(C)C)[C@]1(OC(C)=O)CO[C@@H]1C[C@@H]2O` [Paclitaxel], in data set [1] (10 µM in E3 medium), the “Inhibition of angiogenesis at maximum dose tested in medium” value is recorded as “not enough to induce inhibition of angiogenesis”. Also, in data set [1], the Angiog. inhibition entry was “Yes” and the “Anti-angiogenic phenotype (ISVs / DLAV)” value was “the formation of ISVs was perturbed with defective or total absence of sprouting”. Also, in data set [2], the “Behaviour after dilution in E3 medium” value is “precipitated”.
As for `COc1cc2ncc(-c3ccccc3)nc2cc1OC` [AG-1296], in data set [1], the “Efective concentration (minimum concentration that showed an effect)” value is 20 µM, the Angiog. inhibition entry is on record as “Yes” and the “Anti-angiogenic phenotype (ISVs / DLAV)” value is reported as “moderate effect that did not increase with higher doses”. For the same compound, in data set [1] (listed as AG1296), the “Anti-angiogenic phenotype (ISVs / DLAV)” value was “inhibit proper development of the DLAV; also recorded: thinner ISVs rather than incomplete vessel formation”. Further, in data set [3], the Blood circulation entry is given as “impaired blood circulation” and the ISVs appearance result is “thinner ISVs that were disrupted in some cases”.
For `Cn1c(=O)n(-c2ccc(C(C)(C)C#N)cc2)c2c3cc(-c4cnc5ccccc5c4)ccc3ncc21` [NVP-BEZ235], in data set [1], the “Efective concentration (minimum concentration that showed an effect)” value is recorded as 10 µM, the Angiog. inhibition result is “Yes” and the “Anti-angiogenic phenotype (ISVs / DLAV)” value was “moderate effect that did not increase with higher doses”. Further, in data set [3], the Blood circulation entry is “impaired blood circulation” and the ISVs appearance result is listed as “thinner ISVs that were disrupted in some cases”.
The corresponding values for `CCN(CC)CCCCNc1ncc2cc(-c3cc(OC)cc(OC)c3)c(NC(=O)NC(C)(C)C)nc2n1` [PD173074] are 100 µM, “Yes”, “moderate effect that did not increase with higher doses; also recorded: inhibit proper development of the DLAV; also recorded: thinner ISVs rather than incomplete vessel formation”, “impaired blood circulation” and “thinner ISVs that were disrupted in some cases”.
